The values below come from article PMC10961714, “Novel chemotype NLRP3 inhibitors that target the CRID3-binding pocket with high potency” (Life Science Alliance, 2024).

The target of one assay is T1, carbonic anhydrase II (Homo sapiens, UniProt P00918).
T1 construct: gene CA2; CA II (C6165, Sigma-Aldrich)
The experiment in a line: p-NPA esterase activity assay with […] compound. Type of assay: biochemical.

The target of the next assay is T2, carbonic anhydrase I (Homo sapiens, UniProt P00915).
T2 construct: gene CA1; recombinant carbonic anhydrase I (C4396, Sigma-Aldrich)
The experiment in a line: p-NPA esterase activity assay with […] compound. In kind it is biochemical.

Another assay has as its target T3, NLRP3 (Homo sapiens, UniProt Q96P20).
T3 construct: full-length NLRP3-Nanoluc fusion protein
The experiment in a line: NanoBRET target engagement (tracer displacement) in live HEK293 cells. In kind it is cell-based.

T3 sequence (Q96P20 whole entry, the tested form may be a part): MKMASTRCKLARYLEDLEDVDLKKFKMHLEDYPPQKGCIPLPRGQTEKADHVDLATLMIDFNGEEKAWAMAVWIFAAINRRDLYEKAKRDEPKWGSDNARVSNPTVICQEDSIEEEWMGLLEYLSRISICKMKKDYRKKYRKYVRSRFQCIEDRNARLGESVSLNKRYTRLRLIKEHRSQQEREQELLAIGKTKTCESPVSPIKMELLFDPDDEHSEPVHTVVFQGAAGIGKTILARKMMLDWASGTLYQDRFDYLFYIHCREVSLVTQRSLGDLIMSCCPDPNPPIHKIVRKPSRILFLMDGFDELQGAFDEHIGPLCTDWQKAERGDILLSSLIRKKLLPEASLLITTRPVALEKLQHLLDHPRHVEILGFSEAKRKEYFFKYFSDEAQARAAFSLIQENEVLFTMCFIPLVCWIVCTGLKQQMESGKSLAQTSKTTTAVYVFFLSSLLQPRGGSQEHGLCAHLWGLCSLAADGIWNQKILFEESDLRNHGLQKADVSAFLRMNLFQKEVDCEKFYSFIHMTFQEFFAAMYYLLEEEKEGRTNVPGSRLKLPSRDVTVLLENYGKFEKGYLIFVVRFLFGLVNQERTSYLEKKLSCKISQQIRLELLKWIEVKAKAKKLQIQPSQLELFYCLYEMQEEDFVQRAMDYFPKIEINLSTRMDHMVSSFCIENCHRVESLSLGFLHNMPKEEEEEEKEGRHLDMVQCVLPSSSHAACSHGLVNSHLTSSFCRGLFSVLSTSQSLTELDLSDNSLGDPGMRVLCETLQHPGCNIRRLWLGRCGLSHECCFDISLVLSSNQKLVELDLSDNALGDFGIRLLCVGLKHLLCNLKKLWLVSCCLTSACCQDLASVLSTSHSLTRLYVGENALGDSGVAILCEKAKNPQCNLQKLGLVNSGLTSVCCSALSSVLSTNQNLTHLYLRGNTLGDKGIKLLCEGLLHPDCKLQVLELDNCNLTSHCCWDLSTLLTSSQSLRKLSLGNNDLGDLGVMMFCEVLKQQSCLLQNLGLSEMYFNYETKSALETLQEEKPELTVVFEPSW
T2 sequence (P00915 2-261): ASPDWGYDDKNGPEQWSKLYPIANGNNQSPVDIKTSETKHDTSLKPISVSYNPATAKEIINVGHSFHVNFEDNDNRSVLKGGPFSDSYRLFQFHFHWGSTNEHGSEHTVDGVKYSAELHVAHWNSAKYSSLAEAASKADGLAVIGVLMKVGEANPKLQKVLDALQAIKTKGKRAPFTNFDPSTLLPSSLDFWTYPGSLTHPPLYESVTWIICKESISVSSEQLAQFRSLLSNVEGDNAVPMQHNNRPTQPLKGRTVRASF

With `CC(C)(O)c1coc(S(=O)(=O)NC(=O)Nc2c3c(cc4c2CCC4)CCC3)c1` [CRID3], the figures for the “p-NPA esterase activity assay with 100 μM compound” value at carbonic anhydrase II and at carbonic anhydrase I were “We confirmed this off-target activity of CRID3 in our studies” and “observed significant inhibition of the related enzyme carbonic anhydrase I as well”, respectively. One may read the IC50 as the point on the concentration scale where inhibition reaches its midpoint. A high value points to weaker potency in that assay. Take `CC(C)(O)c1nn(CC(=O)Nc2ccncn2)c(=O)c2cc3sc(Cl)cc3n12` [NIC-11]: at NLRP3, the half-maximal inhibitory concentration (IC50) is 212 nM. On the same count and under the same terms, with `CC(C)c1nn(CC(=O)N[C@@H]2CCCN(CC3CC3)C2)c(=O)c2cc3sc(Cl)cc3n12` [NIC-12] the figure was 131 nM.
